# Experimental data as given in patent US20060128716A1, “Use of 4-pyridylmethyl-phthalazine derivatives for the manufacture of a medicament for the treatment of myelodysplastic syndromes” (priority 2002, published 2006).
# Tests used:
# advanced MDS = test: Clinical example: oral PTK787 in patients with untreated advanced MDS; format: in vivo, human
# Flt-1 = Flt-1 (Homo sapiens, UniProt P17948); details: statement in words, no test described; cited from earlier work
# Flt-4 = Flt-4 (Homo sapiens, UniProt P35916); details: statement in words, no test described; cited from earlier work
# Chain of Flt-4 (P35916 25-1363, species assumed): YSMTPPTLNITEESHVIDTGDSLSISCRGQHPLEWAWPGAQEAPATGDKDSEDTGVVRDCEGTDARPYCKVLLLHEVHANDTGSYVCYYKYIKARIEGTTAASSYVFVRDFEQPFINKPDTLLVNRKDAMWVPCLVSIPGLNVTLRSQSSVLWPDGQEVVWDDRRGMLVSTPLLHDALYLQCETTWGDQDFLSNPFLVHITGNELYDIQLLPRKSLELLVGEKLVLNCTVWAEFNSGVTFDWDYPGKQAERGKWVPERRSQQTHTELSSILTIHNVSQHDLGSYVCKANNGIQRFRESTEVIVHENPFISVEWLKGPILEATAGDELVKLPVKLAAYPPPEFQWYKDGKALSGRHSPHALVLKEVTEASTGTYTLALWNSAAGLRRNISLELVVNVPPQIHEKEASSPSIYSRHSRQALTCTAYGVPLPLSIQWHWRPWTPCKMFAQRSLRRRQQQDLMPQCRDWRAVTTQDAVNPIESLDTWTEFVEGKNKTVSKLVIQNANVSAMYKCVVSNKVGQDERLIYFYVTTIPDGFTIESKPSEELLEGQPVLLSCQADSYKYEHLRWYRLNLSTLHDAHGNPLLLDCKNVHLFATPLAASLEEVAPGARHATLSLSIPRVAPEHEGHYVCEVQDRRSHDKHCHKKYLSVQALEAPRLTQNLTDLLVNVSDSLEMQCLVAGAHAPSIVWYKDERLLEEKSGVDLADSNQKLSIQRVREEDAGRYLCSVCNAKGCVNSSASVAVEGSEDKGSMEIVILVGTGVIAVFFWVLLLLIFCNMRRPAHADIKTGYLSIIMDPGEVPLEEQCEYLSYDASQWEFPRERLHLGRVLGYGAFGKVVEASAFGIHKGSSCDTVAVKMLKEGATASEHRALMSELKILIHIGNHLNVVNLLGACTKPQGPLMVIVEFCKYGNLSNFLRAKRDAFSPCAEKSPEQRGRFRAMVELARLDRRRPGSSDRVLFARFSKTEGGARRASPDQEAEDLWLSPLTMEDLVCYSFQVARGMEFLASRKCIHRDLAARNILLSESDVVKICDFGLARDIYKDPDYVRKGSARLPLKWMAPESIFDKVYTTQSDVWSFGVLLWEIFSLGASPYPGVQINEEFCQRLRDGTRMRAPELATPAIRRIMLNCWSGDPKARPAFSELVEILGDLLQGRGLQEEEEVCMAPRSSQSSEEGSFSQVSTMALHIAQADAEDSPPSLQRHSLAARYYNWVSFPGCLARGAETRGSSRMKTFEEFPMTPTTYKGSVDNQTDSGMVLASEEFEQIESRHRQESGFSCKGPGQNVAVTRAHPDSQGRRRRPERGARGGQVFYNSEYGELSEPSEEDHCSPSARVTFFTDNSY
# c-Kit = c-Kit (Homo sapiens, UniProt P10721); details: statement in words, no test described; cited from earlier work
# Chain of c-Kit (P10721 26-976): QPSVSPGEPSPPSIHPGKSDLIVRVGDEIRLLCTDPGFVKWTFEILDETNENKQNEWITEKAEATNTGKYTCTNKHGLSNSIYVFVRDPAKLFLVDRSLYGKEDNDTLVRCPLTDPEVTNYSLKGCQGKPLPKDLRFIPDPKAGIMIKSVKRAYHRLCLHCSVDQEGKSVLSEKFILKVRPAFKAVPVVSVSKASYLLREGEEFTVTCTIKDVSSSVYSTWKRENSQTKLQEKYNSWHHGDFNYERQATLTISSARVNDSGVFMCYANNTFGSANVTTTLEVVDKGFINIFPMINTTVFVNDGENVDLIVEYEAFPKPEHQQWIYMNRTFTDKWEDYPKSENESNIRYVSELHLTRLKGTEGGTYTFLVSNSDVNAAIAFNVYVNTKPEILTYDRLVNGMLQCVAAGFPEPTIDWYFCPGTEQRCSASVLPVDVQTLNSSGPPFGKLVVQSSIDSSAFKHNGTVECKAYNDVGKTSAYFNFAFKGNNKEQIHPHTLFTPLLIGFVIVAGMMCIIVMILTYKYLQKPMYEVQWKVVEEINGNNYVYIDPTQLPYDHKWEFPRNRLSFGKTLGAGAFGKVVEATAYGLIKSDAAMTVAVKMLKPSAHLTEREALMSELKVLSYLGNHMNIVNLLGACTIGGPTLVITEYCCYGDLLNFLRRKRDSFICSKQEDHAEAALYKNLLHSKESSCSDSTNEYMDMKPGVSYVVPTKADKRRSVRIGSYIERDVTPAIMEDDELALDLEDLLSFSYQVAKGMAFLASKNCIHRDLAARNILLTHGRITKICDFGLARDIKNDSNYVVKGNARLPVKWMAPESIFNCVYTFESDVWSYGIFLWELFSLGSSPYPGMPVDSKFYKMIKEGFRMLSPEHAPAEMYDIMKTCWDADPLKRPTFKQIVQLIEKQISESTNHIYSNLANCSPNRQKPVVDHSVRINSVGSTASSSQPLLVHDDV
# Chain of Flt-1 (P17948 27-1338, species assumed): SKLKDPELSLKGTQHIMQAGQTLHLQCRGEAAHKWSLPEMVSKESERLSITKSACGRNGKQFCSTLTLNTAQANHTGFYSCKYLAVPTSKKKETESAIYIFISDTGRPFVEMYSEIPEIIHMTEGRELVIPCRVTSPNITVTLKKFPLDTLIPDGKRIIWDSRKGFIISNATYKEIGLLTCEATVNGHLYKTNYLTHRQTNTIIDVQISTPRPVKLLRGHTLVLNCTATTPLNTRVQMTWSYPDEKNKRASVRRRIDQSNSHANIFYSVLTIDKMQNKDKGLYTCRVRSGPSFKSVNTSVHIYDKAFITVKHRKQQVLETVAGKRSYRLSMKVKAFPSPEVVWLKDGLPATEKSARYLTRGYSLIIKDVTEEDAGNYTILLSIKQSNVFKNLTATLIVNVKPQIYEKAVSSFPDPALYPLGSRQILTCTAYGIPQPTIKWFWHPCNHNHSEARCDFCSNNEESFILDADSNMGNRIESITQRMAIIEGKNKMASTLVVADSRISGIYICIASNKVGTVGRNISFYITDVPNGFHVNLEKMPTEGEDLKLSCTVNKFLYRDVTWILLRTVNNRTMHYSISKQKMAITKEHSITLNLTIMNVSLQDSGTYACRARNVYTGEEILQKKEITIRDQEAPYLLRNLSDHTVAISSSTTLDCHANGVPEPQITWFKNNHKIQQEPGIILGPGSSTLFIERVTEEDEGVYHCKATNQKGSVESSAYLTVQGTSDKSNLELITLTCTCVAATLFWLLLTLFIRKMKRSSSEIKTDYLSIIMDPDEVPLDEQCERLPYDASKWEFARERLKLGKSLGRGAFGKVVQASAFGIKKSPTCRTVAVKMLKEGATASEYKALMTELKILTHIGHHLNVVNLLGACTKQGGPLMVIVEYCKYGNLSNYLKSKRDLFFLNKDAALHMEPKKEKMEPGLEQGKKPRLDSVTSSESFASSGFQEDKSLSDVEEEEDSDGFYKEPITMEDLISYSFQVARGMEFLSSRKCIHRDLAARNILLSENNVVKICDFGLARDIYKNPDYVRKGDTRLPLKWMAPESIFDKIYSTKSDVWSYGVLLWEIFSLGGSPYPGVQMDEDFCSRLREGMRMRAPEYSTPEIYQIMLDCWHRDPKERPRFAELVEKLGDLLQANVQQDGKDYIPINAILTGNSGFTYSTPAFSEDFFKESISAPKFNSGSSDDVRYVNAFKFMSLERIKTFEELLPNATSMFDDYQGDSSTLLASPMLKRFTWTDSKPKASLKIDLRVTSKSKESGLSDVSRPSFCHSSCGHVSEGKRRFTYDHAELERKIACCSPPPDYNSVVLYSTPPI
smiles,measurement,setting,value
Clc1ccc(Nc2nnc(Cc3ccncc3)c3ccccc23)cc1 [PTK787],disease progression in patients with MDS,advanced MDS; in at least some patients with MDS,slows disease progression
same,patients with MDS showing stable disease with excellent performance status,"advanced MDS; of twelve patients, 500 or 750 mg orally twice daily",Two
same,bone marrow blasts,"advanced MDS; one patient with baseline 18% bone marrow blasts, remained for 8 months, 500 or 750 mg orally twice daily",under 30%
same,bone marrow blasts,"advanced MDS; second patient with baseline 11.5% blasts, remained for 4 months, 500 or 750 mg orally twice daily",≤ 16%
same,inhibition of Flt-1,Flt-1,can also inhibit
same,inhibition of Flt-4,Flt-4,can also inhibit
same,activity against c-Kit,c-Kit,has activity against other tyrosine kinase receptors
